Experimental data published in patent publication US10280401B2, “Method of measuring inhibition of phosphatidylcholine export transport and/or formation activity” (Biotranex, LLC, priority 2015, dated 2019).

Assays:
[1] = tested on: PC export transport activity; experiment: Inhibition of PC export transport activity in human hepatocytes (d9-choline, taurocholic acid, LC/MS/MS); format: cell-based; conditions: Hepatocyte, 100 μg/mL d9-choline, 5 mM taurocholic acid, 2 hours; for inhibition at 1 µM: drug 1 μM; for inhibition at 10 µM: drug 10 μM; for inhibition at 100 µM: drug 100 μM
Protocol: (§1) The effect of a test agent in terms of percentage (%) of inhibition on PC export transport and/or formation activity is determined by the following equation: […]
(§2) Fifty mL InVitroGRO HT medium was pre-warmed in a 37° C. water bath. A vial of hepatocyte was removed from a liquid N2 tank and quickly warmed in a 37° C. water bath by holding in hand with slow rotation. As soon as the edge of the frozen cells was separated from the wall of the vial, the frozen cells were poured into the pre-warmed HT medium and the remaining cells in the vial were collected using pipette. The tube was centrifuged at 50 g, 25° C. for 5 minutes, the supernatant was removed and the cell pellet was re-suspended in 8 mL of pre-warmed Williams E buffer, the cell numbers were counted in a hemocytometer. […] The cells were counted in 0.4% Trypan blue (80 μL Williams E buffer+10 μL Trypan blue stock+10 μL cells). The hepatocyte concentration was adjusted with Williams E buffer to meet the objectives of various experiments.
(§3) LC/MS/MS assays: Liquid chromatography was carried out using a Shimadzu (Columbia, Md.) HPLC system consisting of an SCL-10 Avp system controller, two LC-10 ADvp pumps, a CTC HTC PAL autosampler, a Shimadzu SPD-10 ADvp UV detector and an automated switching valve. The switching valve was used to divert the column effluent to either waste or to the MS instrument. The Shimadzu HPLC system was used for sample injection and analyte separation. Each sample was loaded onto a reverse phase column, Phenomenex (Torrance, Calif.) Luna C85μ2 mm×50 mm. The column chamber's temperature was ambient. The initial HPLC mobile phase conditions used for separation and elution of analytes comprised 50% acetonitrile in water containing 0.1% formic acid (A) and isopropanol:acetonitrile (9:1) (B). The flow rate was 0.5 mL/min. The amount of B in the mobile phase was ramped linearly up to 62% over a 0.5-minute period followed by a slow increase to 63% B in 4.5 minutes, then a rapid increase to 95% B in 0.1 min. After holding at 95% B for 2.3 minutes, the mobile phase was reset to the initial conditions in 0.1 minute. The analytical column was equilibrated with the starting mobile phase for 2.5 minutes. The total run time for each sample analysis was approximately 10 minutes.
(§4) The HPLC elute was injected into an AB Sciex AP14000 LC/MS/MS system (Framingham, Mass.) equipped with a Turbo IonSpray source set with a desolvation temperature of 450° C. Nitrogen was used as curtain gas, nebulizer gas, heater gas, and collision gas. Data for PC was acquired in the positive ion mode using multiple reaction monitoring methods (MRM). The ion transitions of the MRM method for specific detection of PC species were developed in standard fashion. Ionspray voltage was set at 4000 V and the collision gas (CAD) set at 6. Declustering potential and collision energy was set at 50 and 42 respectively for PC. The PC species were monitored using the following transitions: 768→193, 770→193, 796→193, 798→193, 792→193, 794→193, 816→193. (S)-(+)-Methyl 2-(4,5,6,7-tetrahydrothieno[3,2-c]pyridin-5-yl)-2-(2-chlorophenyl)acetate hydrogensulfate was used as an internal standard with the following ion transition: 322.2→152.1. Propane-1-sulfonic acid {3-[5-(4-chlorophenyl)-1H-pyrrolo[2,3-b]pyridine-3-carbonyl]-2,4difluoro-phenyl}-amide was also used as an internal standard with the following ion transition: 490.1→383.1.
(§5) Data analysis: Extracellular concentrations of PC were determined by LC/MS/MS MRM analysis of the 4000 RPM supernatant fractions post-incubation. Cellular concentrations of PC were determined by LC/MS/MS MRM of the extracts of hepatocytes post incubation. PC export transport and/or formation activity and test agent percent inhibition were calculated using the following equations: […]

[2] = tested on: PC export transport activity; experiment: Inhibition of PC export transport activity in rat hepatocytes (d9-choline, taurocholic acid, LC/MS/MS); format: cell-based; conditions: Hepatocyte, 100 μg/mL d9-choline, 5 mM taurocholic acid, 2 hours; for inhibition at 1 µM: drug 1 μM; for inhibition at 10 µM: drug 10 μM; for inhibition at 100 µM: drug 100 μM
Protocol: as §1, §2, §3, §4, §5

| Structure (SMILES) | inhibition at 1 µM [1] [%] | inhibition at 10 µM [1] [%] | inhibition at 100 µM [1] [%] | inhibition at 1 µM [2] [%] | inhibition at 10 µM [2] [%] | inhibition at 100 µM [2] [%] |
| --- | --- | --- | --- | --- | --- | --- |
| O=C(O)CCCC[C@@H]1SC[C@@H]2NC(=O)N[C@@H]21 [Biotin, biotin] | ≤ 30 | ≤ 30 | ≤ 30 | ≤ 30 | ≤ 30 | ≤ 30 |
| CN(C)CCCN1c2ccccc2Sc2ccc(Cl)cc21 [Chlorpromazine, chlorpromazine] | ≤ 30 | 30 to 70 | ≥ 70 | 30 to 70 | ≥ 70 | ≥ 70 |
| Clc1ccccc1C(c1ccccc1)(c1ccccc1)n1ccnc1 [Clotrimazole, clotrimazole] |  |  |  | ≤ 30 | ≤ 30 | ≥ 70 |
| COC1=CC(=O)C[C@@H](C)[C@]12Oc1c(Cl)c(OC)cc(OC)c1C2=O [Griseofulvin, griseofulvin] |  |  |  | ≤ 30 | 30 to 70 | ≥ 70 |
| CC(=O)N1CCN(c2ccc(OCC3COC(Cn4ccnc4)(c4ccc(Cl)cc4Cl)O3)cc2)CC1 (stereo not drawn) [Ketoconazole, ketoconazole] | ≤ 30 | 30 to 70 | ≥ 70 | 30 to 70 | 30 to 70 | ≥ 70 |
| CC(C)(S)[C@@H](N)C(=O)O [Penicillamine, penicillamine] | ≤ 30 | ≤ 30 | ≤ 30 |  |  |  |
| CC1=C(CC(=O)O)c2cc(F)ccc2/C1=C\c1ccc([S+](C)[O-])cc1 (stereo not drawn) [Sulindac, sulindac] |  |  |  | ≤ 30 | 30 to 70 | ≥ 70 |
| Cc1c(C)c2c(c(C)c1O)CCC(C)(COc1ccc(CC3SC(=O)NC3=O)cc1)O2 (stereo not drawn) [Troglitazone, troglitazone] | ≤ 30 | 30 to 70 | ≥ 70 |  |  |  |
